According to the NIST ThermoML archive (doi:10.1021/je900478c):
Numbers after ± are expanded uncertainties.

Legend:
[1] = 101 kPa, Liquid; for viscosity: Capillary tube (Ostwald / Ubbelohde) method
[2] = refractive index (Na D-line) (dimensionless); details: 101.33 kPa, Liquid, Standard Abbe refractometry
[3] = xn = mol fraction of the nth substance listed; details: 101 kPa, Liquid, x2 = 0; for viscosity: Capillary tube (Ostwald / Ubbelohde) method
[4] = refractive index (Na D-line) (dimensionless); xn = mol fraction of the nth substance listed; details: 101 kPa, Liquid, Standard Abbe refractometry, x2 = 0

CCCCCCOCCOCCO [2-(2-hexyloxyethoxy)ethanol]
[1]
Details	mass density [kg/m3]
283.15 K	942.09 ± 0.26
288.15 K	938.05 ± 0.26
293.15 K	934.06 ± 0.27
303.15 K	926.08 ± 0.28
313.15 K	918.17 ± 0.29

CCCCOCCO [2-butoxyethan-1-ol]
Details	mass density, [1] [kg/m3]	refractive index, [2]	viscosity, [1] [mPa·s]
283.15 K	909.49 ± 0.43	1.4226 ± 0.00054	4.46 ± 0.049
293.15 K	901.18 ± 0.44	1.4196 ± 0.00056	3.288 ± 0.037
303.15 K	892.68 ± 0.45	1.4157 ± 0.00061	2.499 ± 0.028
313.15 K	884.21 ± 0.46	1.41139 ± 0.00062	1.946 ± 0.021
323.15 K	875.6 ± 0.47	1.40701 ± 0.00063	1.543 ± 0.017

CCCCOCCOCCO [3,6-dioxa-1-decanol]
Details	refractive index, 283.15 K	refractive index, 293.15 K	refractive index, 303.15 K	refractive index, 313.15 K	refractive index, 323.15 K	viscosity, 283.15 K [mPa·s]	viscosity, 293.15 K [mPa·s]	viscosity, 303.15 K [mPa·s]	viscosity, 313.15 K [mPa·s]	viscosity, 323.15 K [mPa·s]
[1]	–	–	–	–	–	8.301 ± 0.092	5.86 ± 0.069	4.323 ± 0.049	3.295 ± 0.036	2.58 ± 0.029
[2]	1.4347 ± 0.00057	1.4312 ± 0.00056	1.42805 ± 0.00057	1.424 ± 0.00062	1.4194 ± 0.00064	–	–	–	–	–

[1], Vibrating tube method
Details	mass density [kg/m3]
283.15 K	962.57 ± 0.23
293.15 K	954.16 ± 0.23
303.15 K	945.74 ± 0.23
313.15 K	937.35 ± 0.23
323.15 K	928.85 ± 0.23

O [water] + CCCCCCOCCOCCO
Details	mass density [kg/m3]
[3], 283.15 K	999.7 ± 0.12

O [water] + CCCCOCCO
Details	mass density, [3] [kg/m3]	refractive index, [4]	viscosity, [3] [mPa·s]
283.15 K	999.7 ± 0.12	1.33369 ± 0.00041	1.309 ± 0.013
293.15 K	–	1.33299 ± 0.00041	1.003 ± 0.01
303.15 K	–	1.33194 ± 0.00042	0.7983 ± 0.0078
313.15 K	–	1.33061 ± 0.00043	0.6543 ± 0.0064
323.15 K	988.04 ± 0.14	1.32904 ± 0.00043	0.5492 ± 0.0054

O [water] + CCCCOCCOCCO
Details	refractive index, 283.15 K	refractive index, 293.15 K	refractive index, 303.15 K	refractive index, 313.15 K	refractive index, 323.15 K	viscosity, 283.15 K [mPa·s]	viscosity, 293.15 K [mPa·s]	viscosity, 303.15 K [mPa·s]	viscosity, 313.15 K [mPa·s]	viscosity, 323.15 K [mPa·s]
[3]	–	–	–	–	–	1.309 ± 0.013	1.003 ± 0.01	0.7983 ± 0.0078	0.6543 ± 0.0064	0.5492 ± 0.0054
[4]	1.33369 ± 0.00041	1.33299 ± 0.00041	1.33194 ± 0.00042	1.33061 ± 0.00043	1.32904 ± 0.00043	–	–	–	–	–

[3], Vibrating tube method
Details	mass density [kg/m3]
283.15 K	999.7 ± 0.05
323.15 K	988.04 ± 0.05
